Patent US20240100121A1, “COMPOSITIONS OF A BETA-HAIRPIN PEPTIDOMIMETIC AND AEROSOL DOSAGE FORMS THEREOF” (priority 2020, published 2024)
In brackets after ≈: the same amount, converted by molar mass. Read-outs that look alike come from different tables or passages of the source. Where a SMILES comes first, the peptide text is derived from it. [ ]: non-standard residue; d: D form. dDab = NCC[C@@H](N)C(=O)O; Orn = NCCC[C@H](N)C(=O)O; Dab = NCC[C@H](N)C(=O)O

Experiments:
PA40 (mucoid phenotype) [1] = assay: microbe, parasite or virus in culture; type: cell-based, Pseudomonas aeruginosa
Protocol: (§1) Two CF isolates, PA34 (smooth phenotype) and PA40 (mucoid phenotype), and the 2 reference strains PAO and PAO mutS were tested with the BioFlux device. None of the clinical strains were hypermutators.
(§2) Planktonic and biofilm susceptibility of the strains established in the Calgary device and used in the BioFlux device are described in Table 12.

PAO [2] = assay: microbe, parasite or virus in culture; type: cell-based, Pseudomonas aeruginosa
Protocol: as §1, §2

PA34 (smooth phenotype) [3] = assay: microbe, parasite or virus in culture; type: cell-based, Pseudomonas aeruginosa
Protocol: as §1, §2

PAO mutS [4] = type: cell-based, Pseudomonas aeruginosa
Protocol: as §1
(§3) This assay was performed as previously described but with minimal variations (Benoit M R et al., Appl. Environ. Microbiol. 2010, 76, 4136-4142) (FIG. 3). Briefly, a 0.5 McFarland culture was transferred to a flat-bottom 96-well microtiter plate (Nalge Nunc International, Rochester, New York, USA). Bacterial biofilm was formed around the pegs of a modified polystyrene microtiter lid. This lid with pegs was immersed into a growth plate and incubated for 20 h at 37° C. After rinsing the pegs 3 times in saline solution they were placed onto the antimicrobial in BBL™ Mueller-Hinton II cation-adjusted broth (MHB) (Becton, Dickinson and Company, Sparks, MD, USA) and incubated for 20 h at 37° C. […] After this incubation, the biofilm was recovered centrifuging (800 RPM/10 min) the peg lid in an antibiotic-free MHB filled-microtiter plate. The minimal biofilm inhibitory concentration (MBIC) was calculated after measuring the optical density (OD) (450 nm) before and after 6-hour incubation. Biofilm growth was defined as a mean OD difference of ≥0.05. […] The minimal biofilm eradication concentration (MBEC) was defined as the lowest concentration that prevents visible growth in the biofilm recovery medium after 18 h of the microtiter plate incubation (Ceri H et al., J. Clin. Microbiol. 1999, 37, 1771; Macià M D et al., Enferm. Infecc. Microbiol. Clin. 2018, 36, 375-381).
as §2

PA40 (mucoid phenotype) [5] = type: cell-based, Pseudomonas aeruginosa
Protocol: as §1, §3, §2

PAO [6] = type: cell-based, Pseudomonas aeruginosa
Protocol: as §1, §3, §2

PA34 (smooth phenotype) [7] = type: cell-based, Pseudomonas aeruginosa
Protocol: as §1, §3, §2

[8] = tested on: Pseudomonas aeruginosa isolates from respiratory samples of people with cystic fibrosis; assay: Planktonic susceptibility (MIC) of CF isolates; type: cell-based
Source text: (§4) To perform biofilm tests with the Calgary device, fifty-three Pseudomonas aeruginosa isolates from respiratory samples of people with cystic fibrosis were selected among the 414 Pseudomonas aeruginosa of the iABC-collection (Ekkelenkamp M B et al., Antimicrob. Agents Chemother. 2019, 64, 1-7). A representative number of isolates from Northern Ireland, Spain, the Netherlands, and Australia were chosen, including different morphotyes: 18 smooth, 11 mucoid, 11 rough, 10 metallic, and 3 small colony variants. As control strains, the PAO (most commonly used strain for research on this ubiquitous and metabolically versatile opportunistic pathogen, Klockgether J et al., Journal of Bacteriology 2010, 192, 1113-1121) and its hypermutator derivative, PAO mutS strains were used (Oliver A et al., Antimicrob. Agents Chemother. 2004, 48, 4226-33).

PAO mutS [9] = assay: Planktonic susceptibility (MIC), PAO mutS; type: cell-based, Pseudomonas aeruginosa
Protocol: as §1, §2

[10] = tested on: Pseudomonas aeruginosa isolates from respiratory samples of people with cystic fibrosis growing in biofilms; type: cell-based
Source text: (§5) Two types of assays, an open and a closed system, were used to evaluate the in vitro activity on biofilms. The closed or static system based on the Calgary device (Diez-Aguilar M et al., Antimicrob Agents Chemother. 2018, 62, e01650-17, doi: 10.1128/AAC.01650-17, Moskowitz S M et al., J. Clin. Microbiol. 2004, 42, 1915-1922) analyzes biofilm formation in the wells of microtiter plates and is suitable for high-throughput analysis, obtaining pharmacodynamics (PD) parameters, while the open or dynamic system using the BioFlux device (Benoit M R et al., Appl. Environ. Microbiol. 2010, 76, 4136-4142) better resembles the in vivo conditions.
as §4, §3
MBIC and the MBEC are used to determine the anti-biofilm antibiotic in vitro efficacy. MBIC is the lowest concentration at which there is no time-dependent increase in the mean number of biofilm viable cells comparing an early with a later exposure time, while the MBEC indicates the eradication (partly or completely) of biofilm viable cells (Thieme L et al., Biol. Proced. Online 2019, 21, 1-5).

[11] = tested on: clinical Pseudomonas aeruginosa isolates; assay: Mouse lung infection model (PK-PD); type: in vivo
[12] = 28-day dose inhalation study in CD-1 mice; type: in vivo
Protocol: (§6) In the 28-day dose inhalation study in CD-1 mice (20-minute snout only exposure), the mean estimated achieved doses of 0.8, 3.5 and 7.2 mg/kg/day murepavadin free base were administered. […] There were no other findings considered test item related.

[13] = parameters: species or system cynomolgus monkeys; settings: cynomolgus monkey, in vivo
Protocol: as §6

[14] = tested on: Pseudomonas aeruginosa biofilms (PAO, PAO mutS, PA34, PA40); assay: Biofilm assays performed by the BioFlux microfluidic open system; type: cell-based; settings: both open and closed biofilm-testing systems
Source text: as §5, with “conditions. […]” for “conditions.”
Several biofilms were simultaneously developed in a 48 wells plate in the BioFlux 200 system, following an adapted protocol from Benoit M R et al. (Appl. Environ. Microbiol. 2010, 76, 4136-4142). […] Biofilm images were taken using a Nikon Eclipse Ti microscope (Nikon, Tokyo, Japan) and analyzed with the ImageJ program (Java-based image processing program, National Institute of Health, Bethesda, Maryland, USA and Laboratory for Optical and Computational Instrumentation, University of Wisconsin, Wisconsin, USA). The mean percentage of intensity of red fluorescence corresponding to dead cells within the biofilm is represented in a bar chart as black bar (FIG. 4). […]

[15] = tested on: PAO, PAO mutS, PA40, PA34; assay: Planktonic susceptibility of all strains used in the BioFlux device; type: cell-based, Pseudomonas aeruginosa
Protocol: as §1, §2

[16] = Pseudomonas aeruginosa, PA40, read-out: MIC
[17] = Pseudomonas aeruginosa, PAO, read-out: MIC
[18] = Pseudomonas aeruginosa, PA34, read-out: MIC
[19] = Pseudomonas aeruginosa, read-out: MIC50
[20] = Pseudomonas aeruginosa, read-out: MIC90
[21] = biofilm, Calgary device, CF isolates

## C[C@H]1[C@H](NC(=O)/C(=N\OC(C)(C)C(=O)O)c2csc(N)n2)C(=O)N1S(=O)(=O)O [aztreonam]
PA40 (mucoid phenotype) [1]; [16]
  MIC: 16 µg/mL (≈ 36.7 µM)
PAO [2]; [17]
  MIC: 4 µg/mL (≈ 9.19 µM)
PA34 (smooth phenotype) [3]; [18]
  MIC: 0.5 µg/mL (≈ 1.15 µM)
PAO mutS [4]
  MBEC: >256 mg/L
  MBIC: >256 mg/L
PA40 (mucoid phenotype) [5]; PA40
  MBEC: >256 mg/L
  MBIC: 32 mg/L
PAO [6]; PAO
  MBEC: >256 mg/L
  MBIC: >256 mg/L
PA34 (smooth phenotype) [7]; PA34
  MBEC: 256 mg/L
  MBIC: 8 mg/L
[8]
  MIC range: 0.5 to 512 µg/mL
[8]; [19]
  MIC50: 4 µg/mL (≈ 9.19 µM)
[8]; [20]
  MIC90: 256 µg/mL (≈ 588 µM)
PAO mutS [9]; Pseudomonas aeruginosa
  MIC: 64 µg/mL (≈ 147 µM)
[10]; [21]
  MBEC50: 512/>512 mg/L
  MBEC90: 512/>512 mg/L
  MBIC50: 32 mg/L
  MBIC90: > 512 mg/L

## CC[C@H](C)[C@@H]1NC(=O)[C@H](Cc2c[nH]c3ccccc23)NC(=O)[C@H]([C@@H](C)O)NC(=O)[C@@H]2CCCN2C(=O)[C@H]2CCCN2C(=O)[C@H](CO)NC(=O)[C@H](C)NC(=O)[C@H](CCN)NC(=O)[C@H](CCN)NC(=O)[C@H](Cc2c[nH]c3ccccc23)NC(=O)[C@H](CCN)NC(=O)[C@@H](CCN)NC(=O)[C@H](CCCN)NC(=O)[C@H](CCN)NC1=O [murepavadin, cyclo(-Thr-Trp-Ile-Dab-Orn-^DDab-Dab-Trp-Dab-Dab-Ala-Ser-^DPro-Pro-)] (cyclo(TWI[Dab][Orn][dDab][Dab]W[Dab][Dab]AS[dP]P); ring closure inferred)
PA40 (mucoid phenotype) [1]
  MIC: 0.06 µg/mL (≈ 0.0386 µM)
PAO [2]
  MIC: 0.06 µg/mL (≈ 0.0386 µM)
PA34 (smooth phenotype) [3]
  MIC: 0.06 µg/mL (≈ 0.0386 µM)
[11]; IT doses of 0.075-0.625 mg/kg, three out of four clinical isolates
  reduction of bacterial burden: > 2 log10
[11]; inhalation administration
  achieved dose required to attain the ELF AUC exposure: 0.18 mg/kg
[11]; intra-tracheal (i.t.) administration
  achieved dose required to attain the ELF AUC exposure: 0.10 mg/kg
[11]; subcutaneous injection, 15 clinical Pseudomonas aeruginosa isolates
  mean AUC exposure in ELF sufficient to achieve a 1-login reduction of bacterial burden: 12.23 h·mg/L
[12]; 28-day inhalation, 0.8, 3.5 and 7.2 mg/kg/day, adverse pathology in the upper respiratory tract
  No Observed Adverse Effect Level (NOAEL): no No Observed Adverse Effect Level (NOAEL) could be established
[12]; 28-day inhalation, 20-minute snout only exposure, up to 7.2 mg/kg/day murepavadin free base
  systemic toxicity: no evidence of systemic toxicity
[13]
  microscopic test item related findings at the tracheal bifurcation: not considered adverse
PAO mutS [4]
  MBEC: 256 mg/L
  MBIC: 32 mg/L
PA40 (mucoid phenotype) [5]
  MBEC: 8 mg/L
  MBIC: 2 mg/L
PAO [6]
  MBEC: 8 mg/L
  MBIC: 4 mg/L
PA34 (smooth phenotype) [7]
  MBEC: 4 mg/L
  MBIC: 2 mg/L
[8]
  MIC50: ≤ 0.5 µg/mL
  MIC90: 1 µg/mL (≈ 0.644 µM)
  MIC range: ≤0.5 to 32 µg/mL
[10]
  MBEC50: 16 mg/L
[10]; [21]
  MBEC90: 64 mg/L
  MBIC50: 4 mg/L
  MBIC90: 32 mg/L
  MBIC range: ≤0.5 to 64 mg/L
[14]
  activity against biofilms of Pseudomonas aeruginosa: displayed activity
[15]; all tested strains susceptible
  MIC: 0.12 µg/mL (≈ 0.0772 µM)

## NC[C@H]1O[C@H](O[C@H]2[C@H](O)[C@@H](O[C@H]3O[C@H](CO)[C@@H](O)[C@H](N)[C@H]3O)[C@H](N)C[C@@H]2N)[C@H](N)C[C@@H]1O [tobramycin]
PA40 (mucoid phenotype) [1]; [16]
  MIC: 0.5 µg/mL (≈ 1.07 µM)
PAO [2]; [17]
  MIC: 0.5 µg/mL (≈ 1.07 µM)
PA34 (smooth phenotype) [3]; [18]
  MIC: 0.25 µg/mL (≈ 0.535 µM)
PAO mutS [4]
  MBEC: 32 mg/L
  MBIC: 16 mg/L
PA40 (mucoid phenotype) [5]; PA40
  MBEC: 4 mg/L
  MBIC: 2 mg/L
PAO [6]; PAO
  MBEC: 16 mg/L
  MBIC: 2 mg/L
PA34 (smooth phenotype) [7]; PA34
  MBEC: 2 mg/L
  MBIC: 2 mg/L
[8]
  MIC range: ≤0.5 to 256 µg/mL
[8]; [19]
  MIC50: 2 µg/mL (≈ 4.28 µM)
[8]; [20]
  MIC90: 16 µg/mL (≈ 34.2 µM)
PAO mutS [9]; Pseudomonas aeruginosa
  MIC: 2 µg/mL (≈ 4.28 µM)
[10]; [21]
  MBEC50: 8 mg/L
  MBEC90: 256 mg/L
  MBEC range: ≤0.5 to 512 mg/L
  MBIC50: 2 mg/L
  MBIC90: 32 mg/L
  MBIC range: ≤0.5 to 512 mg/L
[15]; Pseudomonas aeruginosa
  MIC: 2 µg/mL (≈ 4.28 µM)

## colistin
PA40 (mucoid phenotype) [1]; PA40
  MIC: 0.5 µg/mL
PAO [2]; PAO
  MIC: 1 µg/mL
PA34 (smooth phenotype) [3]; PA34
  MIC: 2 µg/mL
PAO mutS [4]
  MBEC: 256 mg/L
  MBIC: 256 mg/L
PA40 (mucoid phenotype) [5]; PA40
  MBEC: 32 mg/L
  MBIC: 32 mg/L
PAO [6]; PAO
  MBEC: 128 mg/L
  MBIC: 64 mg/L
PA34 (smooth phenotype) [7]; PA34
  MBEC: 128 mg/L
  MBIC: 32 mg/L
[8]
  MIC50: 1 µg/mL
  MIC90: 4 µg/mL
  MIC range: ≤0.5 to 16 µg/mL
PAO mutS [9]; PAO mutS
  MIC: 1 µg/mL
[10]; [21]
  MBEC50: 64 mg/L
  MBEC90: 128 mg/L
  MBEC range: ≤0.5 to 256 mg/L
  MBIC50: 8 mg/L
  MBIC90: 64 mg/L
  MBIC range: ≤0.5 to 256 mg/L
[15]; all tested strains susceptible
  MIC: 2 µg/mL
